How the values were obtained:
[1] = biological target: T1, recombinant human kappa (KOR) opioid receptor (Homo sapiens, UniProt P41145); test: biochemical; assay type: binding
T1 construct: expressed in transfected cells; host or cells: CHO-K1 cell membranes

[2] = biological target: T2, recombinant human mu (MOR) opioid receptor (Homo sapiens, UniProt P35372); test: biochemical; assay type: binding; conditions: for inhibition at 10 µM: read-out: Mu receptor % inhibition at single concentration, % inhibition @ 10 μM
T2 construct: expressed in transfected cells; host or cells: CHO-K1 cell membranes
T2 sequence (P35372 whole entry): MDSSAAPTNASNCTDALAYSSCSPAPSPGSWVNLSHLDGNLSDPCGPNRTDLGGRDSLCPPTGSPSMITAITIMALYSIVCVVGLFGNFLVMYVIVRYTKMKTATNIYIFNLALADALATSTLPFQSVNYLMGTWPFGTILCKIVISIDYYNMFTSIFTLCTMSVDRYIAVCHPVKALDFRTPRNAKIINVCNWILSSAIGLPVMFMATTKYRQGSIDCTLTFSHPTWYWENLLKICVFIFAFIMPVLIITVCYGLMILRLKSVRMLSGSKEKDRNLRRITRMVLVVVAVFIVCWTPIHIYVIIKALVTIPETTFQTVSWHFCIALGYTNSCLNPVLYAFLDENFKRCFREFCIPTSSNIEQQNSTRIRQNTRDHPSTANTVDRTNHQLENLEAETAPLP

[3] = biological target: T3, KOR (kappa opioid receptor) (Homo sapiens, UniProt P41145); test: cell-based
T3 construct: expressed in transfected cells; host or cells: CHO-K1 cells stably expressing KOR
T3 sequence (P41145 whole entry): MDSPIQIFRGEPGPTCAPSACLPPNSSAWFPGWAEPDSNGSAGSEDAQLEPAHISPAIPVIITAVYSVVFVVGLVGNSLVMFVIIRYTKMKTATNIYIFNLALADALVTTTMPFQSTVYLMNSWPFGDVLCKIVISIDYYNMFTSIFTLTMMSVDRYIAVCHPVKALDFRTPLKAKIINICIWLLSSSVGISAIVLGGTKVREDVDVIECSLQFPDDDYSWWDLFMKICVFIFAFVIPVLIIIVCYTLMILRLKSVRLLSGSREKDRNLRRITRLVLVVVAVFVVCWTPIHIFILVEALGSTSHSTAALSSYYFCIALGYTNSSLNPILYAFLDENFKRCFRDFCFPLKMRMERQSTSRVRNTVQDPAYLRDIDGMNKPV

T1 sequence (P41145 whole entry): as above

| SMILES | IC50 [1] [nM] | Ki [1] [nM] | inhibition at 10 µM [2] [%] | EC50 [3] [nM] | IC50 [2] [nM] |
| --- | --- | --- | --- | --- | --- |
| COCCOCCOCCOCCOCCOc1ccc(CC(=O)N(C)[C@H](CN2CCCC2)c2ccccc2)cc1 [compound 13, N-Methyl-2-[4-(2,5,8, 11, 14-pentaoxahexadecan-16-yloxy)phenyl]-N-[(1S)-1-phenyl-2-(pyrrolidin-1-yl)ethyl]acetamide] | 1320 | 305 | 69.9 |  |  |
| COCCOCCOCCOCCOCCOCC(=O)Nc1cccc([C@@H](CN2CCCC2)N(C)C(=O)C(c2ccccc2)c2ccccc2)c1 [compound 12, N-{3-[(1S)-1-[(Diphenylacetyl)(methyl)amino]-2-(pyrrolidin-1-yl)ethyl]phenyl}-2,5,8,11,14,17-hexaoxanonadecan-19-amide] | 849 | 196 | 46.5 | 36.1 | 53300 |
| CN(C(=O)Cc1ccc(Cl)c(Cl)c1)[C@H](CN1CC[C@H](OCC(=O)O)C1)c1ccccc1 [compound 24, ({(3S)-1-[(2S)-2-{[(3,4-dichlorophenyl)acetyl](methyl)amino}-2-phenylethyl]pyrrolidin-3-yl}oxy)acetic Acid] | 3590 | 468 | -7.9 | 265 | 158000 |
| COCCOCCOCCO[C@H]1CCN(C[C@H](c2cccc(NS(C)(=O)=O)c2)N(C)C(=O)Cc2ccc(Cl)c(Cl)c2)C1 [compound 17, 2-(3,4-dichlorophenyl)-N-[(1S)-2-[(3S)-3-{2-[2-(2-methoxyethoxy)ethoxy]ethoxy}pyrrolidin-1-yl]-1-{3-[(methylsulfonyl)amino]phenyl}ethyl]-N-methylacetamide] | 1570 | 362 | 81.9 | 67.3 |  |
| COCCOCCOCCO[C@H]1CCN(C[C@H](c2ccc(C(F)(F)F)cc2)N(C)C(=O)Cc2ccc(Cl)c(Cl)c2)C1 [compound 33, 2-(3,4-Dichlorophenyl)-N-{(1S)-2-[(3S)-3-{2-[2-(2-methoxyethoxy)ethoxy]ethoxy}pyrrolidin-1-yl]-1-[4-(trifluoromethyl)phenyl]ethyl}-N-methylacetamide] | 1240 | 285 | 84.1 |  |  |
| COCCOCCOCCOCCOCCOCCOCCOC(=O)N[C@H](C(=O)Nc1cccc([C@@H](CN2CC[C@H](O)C2)N(C)C(=O)Cc2ccc(Cl)c(Cl)c2)c1)C(C)C [compound 48, N-(3-{(1S)-1-{[(3,4-Dichlorophenyl)acetyl](methyl)amino}-2-[(3S)-3-hydroxypyrrolidin-1-yl]ethyl}phenyl)-N^2-2,5,8,11,14,17,20,23-octaoxatetracosan-1-oylvalinamide] | 3.48 | 0.8 | 73.2 | 0.43 |  |
| COCCOCCS(=O)(=O)Nc1cccc([C@@H](CN2CCCC2)N(C)C(=O)Cc2ccc(Cl)c(Cl)c2)c1 [compound 20, 2-(3,4-dichlorophenyl)-N-[(1S)-1-[3-({[2-(2-methoxyethoxy)ethyl]sulfonyl}amino)phenyl]-2-(pyrrolidin-1-yl)ethyl]-N-methylacetamide] | 0.6 | 0.14 | 97.1 | 0.15 |  |
| COCCOCCOCCOCCOCCO[C@H]1CCN(C[C@H](c2ccccc2)N(C)C(=O)CNc2ccccc2)C1 [compound 8, N-Methyl-N-{(1S)-2-[(3S)-3-(2,5,8,11,14-pentaoxahexadecan-16-yloxy)pyrrolidin-1-yl]-1-phenylethyl}-N^2-phenylglycinamide] | 1480 | 342 | 47.5 | 74.7 |  |
| CN(C(=O)Cc1ccc(Cl)c(Cl)c1)[C@H](CN1CC[C@H](OCCOCCOCC(=O)O)C1)c1ccccc1 [compound 29, {2-[2-({(3S)-1-[(2S)-2-{[(3,4-Dichlorophenyl)acetyl](methyl)amino}-2-phenylethyl]pyrrolidin-3-yl}oxy)ethoxy]ethoxy}acetic Acid] | 580 | 111 | 30.5 | 41.2 | 25900 |
| CN(C(=O)Cc1ccc(Cl)c(Cl)c1)[C@H](CN1CC[C@H](O)C1)c1ccc(OCCO)cc1 [compound 38, 2-(3,4-dichlorophenyl)-N—((S)-1-(4-(2-hydroxyethoxy)phenyl)-2-((S)-3-hydroxypyrrolidin-1-yl)ethyl)-N-methylacetamide] | 0.49 | 0.06 | 87.2 | 0.03 |  |
| CCCCOCCOCCOCCS(=O)(=O)Nc1cccc([C@@H](CN2CCCC2)N(C)C(=O)Cc2ccccn2)c1 [compound 30, N-[(1S)-1-{3-[({2-[2-(2-Butoxyethoxy)ethoxy]ethyl}sulfonyl)amino]phenyl}-2-(pyrrolidin-1-yl)ethyl]-N-methyl-2-(pyridin-2-yl)acetamide] | 464 | 60.5 | 85.5 | 38.9 |  |
| COCCOCCOCCOCCOCCOCCOCCOC(=O)NC1(C(=O)Nc2cccc([C@@H](CN3CC[C@H](O)C3)N(C)C(=O)Cc3ccc(Cl)c(Cl)c3)c2)CC1 [compound 49, 2,5,8,11,14,17,20-Heptaoxadocosan-22-yl {1-[(3-{(1S)-1-{[(3,4dichlorophenyl)acetyl](methyl)amino}-2-[(3S)-3-hydroxypyrrolidin-1yl]ethyl}phenyl)carbamoyl]cyclopropyl}carbamate] | 1.61 | 0.37 | 78.1 | 0.11 |  |
| COCCOCCOCCOCCOCCN1CCN(C[C@H](c2ccccc2)N(C)C(=O)Cc2ccc(Cl)c(Cl)c2)CC1 [compound 39, (S)—N-(2-(4-(2,5,8,11,14-pentaoxahexadecan-16-yl)piperazin-1-yl)-1-phenylethyl)-2-(3,4-dichlorophenyl)-N-methylacetamide] | 18500 | 4270 | 9.6 | 1950 |  |
| CN(C(=O)Cc1ccc(Cl)c(Cl)c1)[C@H](CN1CC[C@H](OCCOCCOCCO)C1)c1ccccc1 [compound 27, 2-(3,4-Dichlorophenyl)-N-{(1S)-2-[(3S)-3-{2-[2-(2-hydroxyethoxy)ethoxy]ethoxy}pyrrolidin-1-yl]-1-phenylethyl}-N-methylacetamide] | 106 | 13.8 | 50.4 | 4.38 | 9220 |
| COCCOCC(=O)Nc1cccc([C@@H](CN2CC[C@H](O)C2)N(C)C(=O)C(c2ccccc2)c2ccccc2)c1 [compound 11, N-[(1S)-2-[(3S)-3-Hydroxypyrrolidin-1-yl]-1-(3-{[(2-methoxyethoxy)acetyl]amino}phenyl)ethyl]-N-methyl-2,2-diphenylacetamide] | 58.1 | 13.4 | 45.2 | 5.02 |  |
| CN(C(=O)Cc1ccc(Cl)c(Cl)c1)[C@H](CN1CC[C@H](OCCOCC(=O)O)C1)c1ccccc1 [compound 28, [2-({(3S)-1-[(2S)-2-{[(3,4-Dichlorophenyl)acetyl](methyl)amino}-2-phenylethyl]pyrrolidin-3-yl}oxy)ethoxy]acetic Acid] | 2100 | 274 | 4.9 | 148 | 73400 |
| COCCOCCOCCOCCOCCO[C@H]1CCN(C[C@H](c2ccccc2)N(C)C(=O)Cc2ccc(Cl)c(Cl)c2)C1 [compound 7, 2-(3,4-Dichlorophenyl)-N-methyl-N-{(1S)-2-[(3S)-3-(2,5,8,11,14-pentaoxahexadecan-16-yloxy)pyrrolidin-1-yl]-1-phenylethyl}acetamide] | 298 | 68.8 | 68.6 | 9 | 15600 |
| COCCS(=O)(=O)Nc1cccc([C@@H](CN2CCCC2)N(C)C(=O)Cc2ccc(Cl)c(Cl)c2)c1 [compound 18, 2-(3,4-dichlorophenyl)-N-[(1S)-1-(3-{[(2-methoxyethyl)sulfonyl]amino}phenyl)-2-(pyrrolidin-1-yl)ethyl]-N-methylacetamide] | 0.57 | 0.13 | 97.8 | 0.09 |  |
| COCCOCCOCCO[C@H]1CCN(C[C@H](c2ccc(OCCO)cc2)N(C)C(=O)Cc2ccc(Cl)c(Cl)c2)C1 [compound 37, 2-(3,4-Dichlorophenyl)-N-{(1S)-1-[4-(2-hydroxyethoxy)phenyl]-2-[(3S)-3-{2-[2-(2-methoxyethoxy)ethoxy]ethoxy}pyrrolidin-1-yl]ethyl}-N-methylacetamide] | 98.1 | 22.6 | 57.8 | 4.15 |  |
| COCCOCCOCCOCCOCCNC(=O)Nc1cccc([C@@H](CN2CCCC2)N(C)C(=O)Cc2ccc(Cl)c(Cl)c2)c1 [compound 15, 2-(3,4-dichlorophenyl)-N-methyl-N-[(1S)-1-{3-[(2,5,8,11,14-pentaoxahexadecan-16-ylcarbamoyl)amino]phenyl}-2-(pyrrolidin-1-yl)ethyl]acetamide] | 2.33 | 0.54 | 84.1 | 0.42 |  |
| COCCOCCOCCOCCOCCNC(=O)Nc1cccc([C@@H](CN2CCCC2)N(C)C(=O)C(c2ccc(Cl)cc2)c2ccc(Cl)cc2)c1 [compound 16, 2,2-Bis(4-chlorophenyl)-N-methyl-N-[(1S)-1-{3-[(2,5,8,11,14-pentaoxahexadecan-16-ylcarbamoyl)amino]phenyl}-2-(pyrrolidin-1-yl)ethyl]acetamide] | 62.7 | 14.5 | 27.1 | 15.1 |  |
| COCCOCCOCCOCCOCCO[C@H]1CCN(C[C@H](c2ccccc2)N(C)C(=O)Cc2ccccc2[N+](=O)[O-])C1 [compound 41, N—((S)-2-((S)-3-(2,5,8,11,14-pentaoxahexadecan-16-yloxy)pyrrolidin-1-yl)-1-phenylethyl)-N-methyl-2-(2-nitrophenyl)acetamide] | 5200 | 1200 | 20.5 |  |  |

From patent US11111214B2 (priority 2013, dated 2021)
